Source: US20200383327A1, “METHOD OF IMPROVING PLANT PERFORMANCE” (The State of Israel, Ministry of Agriculture & Rural …, priority 2018, published 2020)
“Also recorded” adds a separate entry of the source.

How the values were obtained:
Type in all cases: in vivo
Oidiopsis sicula = assay: Oidiopsis powdery mildew on tomato plants; conditions: 4 mM Phe solution, drench or spray, each treatment; 24 days after treatment; FIG. 12
Description: FIG. 12 is a bar graph showing the effect of 4 mM Phe solution on the severity of Oidiopsis sicula powdery mildew on tomato plants. The Phe solution was applied by spraying and by drench on the tomato plants at 3 days before and 4 hours before incubation in the greenhouse Incidence of Oidiopsis powdery mildew was evaluated 24 days after treatment.
Conidia of Oidiopsis sicula were collected from leaves of a diseased plant, suspended in water and sprayed on the tomato plants. The plants were kept in a greenhouse with 18-28° C. Disease severity of Oidiopsis powdery mildew was evaluated on a scale of 0-100% where 100=all leaves covered by disease symptoms.

[1] = Plant crop production (fruits)
Description: FIGS. 21A-21D are bar graphs showing the effects of 1-4 mM solution on plant crop production (e.g., fruits). Plants were treated with 2 mM once or twice, once with 4 mM or non-treated (control). (21A) is a graph showing the cumulative weight of fruits per plant. (21B) is a graph showing the number of fruits per plant. (21C) is a graph showing the average weight of a fruit. (21D) is a graph showing the number of young fruits, e.g., “set fruit”.

Penicillium digitatum = assay: Postharvest decay of 'Michal' clementine fruit sprayed with conidia; conditions: 4 mM phenylalanine, FIG. 6
Description: FIGS. 6A-6C are graphs and a photograph showing induced resistance of harvested clementine fruit to fungal pathogens. FIG. 6A is a vertical bar showing the % of decayed Clementine fruit (in a box) of the cultivar ‘Michal’ which were dipped for 30 seconds in 4 mM phenylalanine. After the fruits were dried, they were sprayed with conidia suspension of Penicillium digitatum (early infection), or alternatively the fruit was sprayed with conidia suspension two days after being dipped in phenylalanine (late infection). FIG. 6B is representative pictures of inoculated fruits of control and treatment with 4 mM phenylalanine, 5 days post inoculation. FIG. 6C is diagrams of taste evaluation of control fruit (upper panel) and phenylalanine treated fruit (lower panel) which include off-flavors (index 1-5), acidity (index 1-5), sweetness (index 1-5), and general taste (index 1-5).

Alternaria alternata = assay: Postharvest decay of 'Ettinger' avocado fruit, wound inoculated; conditions: 4 mM phenylalanine, FIG. 5
Description: FIGS. 5A-5B are a graph and a photograph showing induced resistance of harvested Avocado fruit to fungal pathogens. FIG. […] A day after dipping the treated or untreated fruits were wound inoculated on four spots in each fruit with 7 μl of Alternaria alternata conidia suspension (10^6 conidia/ml) and the decay area was monitored for 6 days post inoculation (dpi). FIG. 5B is representative pictures of inoculated fruits of control and treatments with 4 mM phenylalanine, 6 days post inoculation.

Botrytis = assay: Resistance of petunia plants to Botrytis, increasing Phe concentrations
Description: The effect of treating petunia plants with increased concentrations of Phe was assessed: plants were either sprayed or drenched with increasing concentration of Phe three days prior to infection with Botrytis and on the day of infection. The infected area was followed for 7-10 days after infection.

[2] = test system: Colletotrichum gloeosporioides; assay: Postharvest decay of 'Shelly' mango fruit, wound inoculated; conditions: for Inhibition of pathogenic activity: postharvest, mango
Description: (§1) FIGS. 4A-4B are graphs showing induced resistance of harvested Mango fruit to fungal pathogens. FIG. […] A day later the treated or untreated fruits were wound inoculated on four spots in each fruit with 7 μl of Lasiodiplodia theobromas conidia suspension (10^6 conidia/ml) and the decay area was monitored for 7 days post inoculation (dpi). FIG. […] A day later the treated or untreated fruits were wound inoculated on four spots in each fruit with 7 μl of Colletotrichum gloeosporioides conidia suspension (10^6 conidia/ml) and the decay area was monitored for 14 days post inoculation (dpi).

Lasiodiplodia theobromae = assay: as above; conditions: for Inhibition of pathogenic activity: postharvest, mango
Description: as §1

Colletotrichum = assay: Spots and pitting of infected mango fruits under 7° C.; conditions: post-harvest treated and infested mango
Description: (§2) FIGS. 19A-19G are images and graphs showing the effect of Phe solution on fruit post-harvest rotting under cold temperature resistance. (19A-19B) are images showing post-harvest control and treated mango fruits, respectively, stored in 7° C. […] (19C-19D) are vertical bar graphs showing indices of spots (19C) and pitting (19D) of mango fruits infected by Colletotrichum or Lasiodiplodia under 7° C. (19E-19G) are vertical bar graph showing […] decay was shown at 7° C., and side decay and total decay were shown at 7° C. and 10° C.
(§3) Mango fruits were treated with Phe solution post-harvest. Fruits were stored in either 7° C. or 10° C., and decay was inspected and documented. Post-harvest treatment as described hereinabove reduced stem decay, side decay, and total decay (FIGS. 19E-19G). […] Fruits were both treated with AAA and infested with […] post-harvest. […] (FIGS. 19C-19D).

Lasiodiplodia = assay: as above; conditions: post-harvest treated and infested mango
Description: as §2, §3

[3] = Number of flowers and stigmas of Petunia plants
Description: FIGS. 22A-22C are vertical bar graphs showing the effect of Phe solution on the number of flowers per plant. Petunia plants were treated once a week for 5 weeks with Phe solution (2 mM, 6 mM, 15 mM, 35 mM, or none, i.e., control). Numbers of flowers were counted and documented over a period of 7 weeks for Petunia ‘easy-rider’ strain (FIG. 22A) and Petunia ‘white dreams’ strain (FIG. 22B).

[4] = postharvest treatment of 'Shelly' mango, FIG. 4

N[C@@H](Cc1ccccc1)C(=O)O [Phe, Phenylalanine]
Severity of Oidiopsis powdery mildew on tomato leaves (Oidiopsis sicula): significantly suppressed
Number of young fruits (set fruit) ([1]; 4 mM-treated plants vs control, FIG. 21D): greater number of young fruits
Total crop yielded (fruits) ([1]; Phe solution vs control): significantly increased the total crop yielded
Cumulative fruit weight ([1]; Phe treated vs control): significantly greater cumulative fruit weight
Number of fruits ([1]; Phe treated vs control): comparable amount
Average weight per fruit ([1]; Phe treated vs control, FIG. 21C): significantly greater average weight per fruit
Decay severity in comparison to the untreated control fruits (Penicillium digitatum): reduced the decay severity
Decay severity in comparison to the untreated control fruits (Alternaria alternata): reduced the decay severity
Protection against Botrytis (Botrytis; 6 mM Phe, sprayed or drenched, petunia, 7-10 days after infection): might not be effective enough
Plant health and pathogen status (Botrytis; 15 and 35 mM Phe, drenched, petunia): healthy, pathogen free
Resistance to Botrytis (Botrytis; 35 and 50 mM Phe, sprayed, petunia, FIG. 7): much higher resistance to Botrytis
Phe concentration at which resistance to Botrytis was apparent (Botrytis; drenching Phe, FIGS. 8A-8B): ≥ 6 mM
Phe concentration at which resistance to Botrytis was apparent (Botrytis; sprayed Phe, FIGS. 7A-7B): ≥ 6 mM
Inhibition of pathogenic activity ([2]; 2 mM phenylalanine): did not suffice
Inhibition of pathogenic activity ([2]; 4 mM phenylalanine): substantially inhibited the pathogenic activity
Decay severity in comparison to the untreated control fruits [2, 4]: reduced the decay severity
Inhibition of pathogenic activity (Lasiodiplodia theobromae; 2 mM phenylalanine): did not suffice
Inhibition of pathogenic activity (Lasiodiplodia theobromae; 4 mM phenylalanine): substantially inhibited the pathogenic activity
Decay severity in comparison to the untreated control fruits (Lasiodiplodia theobromae; [4]): reduced the decay severity
Levels of black spots (Colletotrichum; FIG. 19C): substantially reduced levels
Levels of pitting (Colletotrichum; FIG. 19D): substantially reduced levels
Levels of black spots (Lasiodiplodia; FIG. 19C): substantially reduced levels
Levels of pitting (Lasiodiplodia; FIG. 19D): substantially reduced levels
Number of flowers ([3]; Phe solution once a week for 5 weeks vs control, FIGS. 22A-22B): more flowers
Number of stigmas ([3]; Phe solution vs control, FIG. 22C): more flowers and stigmas; also recorded: more stigmas compared to control
